From patent publication US20240002809A1, “FRACTAL CUES SUPPORT HIERARCHICAL MATURATION OF CELLS VIA CURVATURE-INDUCED PATTERNING” (The Governing Council of the University of Toronto, priority 2022, published 2024)

Experiments:
Assay type in all cases: cell-based
[1] = test system: Mosaic cells cultured on HF scaffolds; experiment: Mosaic assay Adriamycin dose test (fractal dimension of cell morphology); conditions: 0.5 and 1 μg/mL ADR; only with Mosaic cells cultured on HF scaffolds (not NT); FIG. 6e, 6f
Description: To develop the mosaic assay, populations of fluorescent cells were mixed with optically silent cells and monitored for over 14 days in the mouse cell line, and over 5 days in the human cell line. For long-term live cell labeling, adenovirus transduction of eGFP (Vector Biolabs, #1060) was utilized at an MOI of 1000 in the mouse podocyte cell line, and MOI of 10 in the human podocyte cell line. Cells were transduced one day after seeding and attachment, when cultures were 75% confluent. Virus handling protocols were used, including wearing additional disposable PPE (lab coat, shoe covers, elbow-length and double gloves, and face mask). […]
The next day, virus was removed and puromycin was applied at 8 μg/mL to select fluorescent cells for 48 hours. […] The mosaic assay was assessed using the Zeiss […] super resolution confocal microscope to allow sufficient resolution to see interdigitating foot processes. […]
Images of single fluorescent cells from the mosaic assay (used in topography, model virus, Adriamycin, and patient serum experiments) were first processed using Zeiss's ZenDesk software to facilitate delineation of whole single cell morphology as follows: the FITC channel was adjusted by setting gamma to 2.5 and adjusting the white point to 30. […] The sequence was recorded as a macro to facilitate automation and thus performed blindly and equivalently to all sample images. […]

[2] = test system: human podocyte cell line on HF substrates; experiment: YAP inhibition study, Mosaic assay fractal dimension of whole cell morphology; conditions: dose of 1 μM, in comparison to the inhibitor-free control, FIG. 13e
Protocol: Mosaic Assay: Mosaic Podo/Tert256 human podocytes (a mixture of GFP-labelled cells and non-fluorescent cells at a ratio of 1:11) were cultured and seeded in the same way as regular human podocytes as described above. At the study endpoint, cells were fixed with PFA, stained with rhodamine-wheat germ agglutinin (WGA), and mounted with DAPI-containing mounting media as described above. Samples were imaged via confocal microscopy using a Zeiss LSM 880 Super Resolution Confocal microscope to allow sufficient resolution to visualize interdigitated morphology. Z-stacked images spanning the entire section with visible signals were taken for each sample. The images were first processed using Zeiss's ZenDesk software to increase the contrast of GFP-positive cells' morphology as follows: the FITC channel was adjusted by setting gamma to 2.5 and adjusting the white point to 30. The DAPI channel's white point was adjusted to 80. In Photoshop or Fiji, the magic wand tool was used to select single fluorescent cells, create binary masks, and export binary images of single cells. Single cells were verified by overlaying nuclei with the cell images to ensure each cell only contained one nucleus. Binary images were then outlined in Fiji, and fractal analysis was performed using the FracLac plugin where the standard box-counting algorithm was used, with the background locked to white. […]

[3] = test system: human podocyte cell line on HF substrates; experiment: Lactate dehydrogenase (LDH) release assay of Mosaic assay cells; conditions: dose of 1 μM, FIG. 13d
Protocol: YAP Inhibition Study: HF and NT scaffolds were prepared as described above. Mosaic human podocytes were seeded on top of the scaffolds at a concentration of 50,000 cells/cm^2 (100,000 cells per scaffold). […] Samples were fixed on day 5. Media was collected and lactate dehydrogenase assay (LDH) assay (Cayman) was performed according to manufacturer's protocol to validate cell viability. Mosaic assay imaging and analysis were performed as described above.

| Compound | injury response: fractal dimension of cell morphology [1] | Df of podocyte morphology [2] | cell viability (LDH release) [3] |
| --- | --- | --- | --- |
| COc1cccc2c1C(=O)c1c(O)c3c(c(O)c1C2=O)C[C@@](O)(C(=O)CO)C[C@@H]3O[C@H]1C[C@H](N)[C@H](O)[C@H](C)O1 [Adriamycin, doxorubicin] | reduced fractal dimension of cell morphology |  |  |
| Verteporfin |  | decreased significantly | did not show any significant deterioration of cell viability |
